From US12419839B2, “Methods and compositions for targeted delivery of protein fragments” (Signablok, Inc., priority 2009, dated 2025)
Where no end group is shown, it is not given here.

Assays:
A549 xenograft = A549 xenograft mouse model of NSCLC; assay type: in vivo; details: compared to the vehicle-treated group
Description: FIG. 16 presents exemplary data showing that in drug-containing synthetic (recombinant) HDL (SLP, LPC), apolipoprotein can be replaced by synthetic apolipoprotein fragments without compromising the drug antitumor activity in an animal model. Bars, SEM. For statistical analysis, each treatment was compared with the vehicle control using Student's t test. **, P 0.001 to 0.01. Abbreviations: apo, apolipoprotein; HDL, high density lipoproteins; HDL (A-Iox), HDL with oxidized human apo A-I; HDL (PE22ox+PA22ox), HDL with a 1:1 mixture of synthetic peptides PE22ox and PA22ox that correspond to apo A-I helixes 4 and 6, respectively (SEE FIG. 12); dHDL and sHDL, discoidal and spherical HDL, respectively; LPC, lipoprotein/lipopeptide complexes; NSCLC, non-small cell lung cancer; PTX, paclitaxel; SLP, synthetic lipoprotein/lipopeptide particles; TREM-1, triggering receptor expressed on myeloid cells-1.
See, FIGS. 15 and 16. Here, A549 cells were injected subcutaneously into nude mice and randomized into treatment groups (n=10) once tumors reached an average of 200 mm^3. The treatment groups were: i) Vehicle (HDL containing no GF9); ii) paclitaxel (PTX) as a positive control; iii) GF9-dHDL (A-Iox); iv) GF9-sHDL (A-Iox); v) GF9-dHDL(PE22ox+PA22ox); and vi) GF9-sHDL(PE22ox+PA22ox) where each group received intraperitoneal injections twice a week. […]

mice with CIA = details: sHDL-bound MG11 2.5 mg/kg
[1] = test system: GM-CSF, IFNγ, IL-1β, IL-2, IL-6, IL-17, M-CSF and TNFα; assay: serum cytokines in mice with CIA; assay type: in vivo; details: serum on day 38; MG11 and MG11-2G 25 mg/kg, sHDL-bound MG11 2.5 mg/kg; vs vehicle

Molecule: CC(=O)O[C@H]1C(=O)[C@@]2(C)[C@H]([C@H](OC(=O)c3ccccc3)[C@]3(O)C[C@H](OC(=O)[C@H](O)[C@@H](NC(=O)c4ccccc4)c4ccccc4)C(C)=C1C3(C)C)[C@]1(OC(C)=O)CO[C@@H]1C[C@@H]2O [PTX, paclitaxel]
- post necropsy excised tumors weights (A549 xenograft): significantly lower

Molecule: MWGTPTLGYFG [MG11-2G, free control peptide]
- clinical severity of CIA (mice with CIA; i.p. daily for 14 days from day 24, MG11 and MG11-2G 25 mg/kg, vs vehicle): no effect
- serum cytokine release [1]: no effect

Molecule: MWKTPTLKYFG [free MG11, MWKTPTLKYFG]
- body weight (mice with CIA; i.p. daily for 14 days, MG11 25 mg/kg): without affecting body weight
